Measured values: patent US5561131A, “Defaunation method” (Mallinckrodt Veterinary, Inc., priority 1991, dated 1996)
Several values for one entry are separate records, joined by “and”; a condition that tells them apart may be missing. Equal entries are not always repeated.

Experiments:
[1] = Effect of defaunation compounds on feed intake of sheep; format: in vivo; conditions: after dosing vs pre-dosing intake
[2] = test system: mice; experiment: Mouse safety assessment; format: in vivo; conditions: oral gavage, 830, 415 and 217 mg/kg, observed for 2 days
Description: Compounds of Table 1 chosen for testing in sheep were first tested in mice for signs of toxicity. Because sheep are approximately 5 times more sensitive than mice to compounds dosed orally, the dose rates applied to mice were 5 times greater than the target dose rate of 500 ppm. in rumen liquor (83 mg/kg live weight) used for sheep. Each compound was screened at three different dose levels, high (830 mg/kg), medium (415 mg/kg) and low (217 mg/kg).
252 mg of compound was used for dilution into a high medium and low dose rate. 252 mg of compound was mixed with 3 ml of G1284 solution (4% w/v ethoxylated castor oil and 0.05% w/v simethicone), to form the high dose composition. The medium dose composition was formed by diluting 1.5 ml of the high dose with 1.5 ml of G1284 solution. The low dose composition was formed by diluting 1.5 ml of the medium dose with 1.5 ml of G1284 solution. Before the high dose could be diluted it was first manually ball milled in an effort to produce a fine suspension of the compound.
All mice were weighed before dosing to calculate the appropriate dose rate. The calculation for dose rate was: [formula]
Each mouse was dosed using the Gavage method. With this method the mouse is dosed orally by way of an angled hypodermic needle (18 g) with a smooth spherical end. It is gently placed down the esophagus. All care must be taken not to force the needle and injure the esophagus or dose into the lungs.
Observations were made at 10, 30, 60 and 120 minutes after dosing, then every 1 or 2 hours for the first 6 hours.
Mice were usually observed for 2 days.
Typically, few compounds fell within the poor classification. The majority of compounds tested were either in the fair or good classification.

[3] = test system: protozoa; experiment: Pilot field testing: elimination of protozoal population in sheep; format: in vivo; conditions: week 3, 167 mg/kg
[4] = test system: rumen ciliate protozoa; experiment: Protozoal reduction in sheep; format: in vivo; set-up: concentration or dose not given beside the values; conditions: one week after dosing, relative to predosing numbers
[5] = test system: rumen protozoa; experiment: Defaunation using single or 2 or 3 repeated doses in sheep; format: in vivo; conditions: individual sheep
Description: (§1) Sheep were fed a diet of 900 g oaten chaff daily, except that food and water were withheld for 19 hours before and 24 hours after dosing. Each dose was prepared by mixing compound 37 with 20 ml of ethanol followed by 200 ml of centrifuged rumen liquor, to give a dose of 167 mg/kg body weight, administered by rumen tube. Rumen protozoa were counted weekly following the final treatment.
Table 9: The effect of administering compound 37 (from table 1) on mean protozoal numbers in rumen in sheep.

[6] = Growth and carcass measurements in lambs; format: in vivo, lambs (sheep); conditions: 332 mg/kg
Description: (§2) Three cross-bred lambs were defaunated with compound 37 at dose rate of 332 mg per kg liveweight. The lambs were allowed four weeks to adapt to defaunation before commencing the trial. The lambs were grazed at pasture. Then control (faunated) cohorts of the defaunated group, which were matched for liveweight, were grazed in the same paddock, but separated from the defaunated lambs by a double-fence (4 meter separation). This was to prevent the faunated lambs contaminating the defaunated lambs.
At 16 weeks post-defaunation both groups of the lambs were sacrificed and measurements taken.
Also shown is the cross-sectional area of the longissimus dorsi (loin eye muscle) measured between the 12th and 13th rib.

[7] = test system: protozoa; experiment: Protozoal population number in growing lambs; format: in vivo, lambs (sheep)
Description: as §2, with “Ten” for “Then”, “lambs. Both groups of lambs were weighed on four occasions at three weekly intervals. Protozoa were also monitored at the same time.” for “lambs.”

[8] = test system: protozoa; experiment: Reliability of defaunation using 2 repeated doses in sheep; format: in vivo; conditions: Group 1, 2 doses, 4 weeks
Description: as §1
Sixty (60) Sheep, in three successive trials of 20 each, were treated with 2 doses of compound 37, one week apart, according to the method of Example 14. Protozoa were counted at 4 or 5 weeks after the second treatment.

[9] = The Pesticide Manual, 9th Ed. 1991; cited from earlier work
[10] = Liveweight gain of growing lambs; format: in vivo, lambs (sheep); conditions: 332 mg/kg
Description: as §2, with “Ten” for “Then”, “lambs. Both groups of lambs were weighed on four occasions at three weekly intervals. Protozoa were also monitored at the same time.” for “lambs.”

SMILES: Cc1ccc(Nc2nc(Cl)nc(Cl)n2)cc1Cl [Compound 27, 2,4 dichloro-6-(3 chloro-4-methylanilino)-s-triazine]
- Feed Intake [1]: Okay (transient drop, less than 50% at day 2)
- Mouse Safety Assessment [2]: Fair (>2 mice sick)
- Protozoal number [3]: 0 per mL × 10^3
- Protozoal Reduction [4]: 100%

SMILES: Clc1nc(Cl)nc(Nc2ccccc2Cl)n1 [Compound 37, 2,4-dichloro-6-(2-chloroanilino)-1,3,5-triazine]
- Feed Intake [1]: Okay (transient drop, less than 50% at day 2)
- Protozoal number [3]: 0 per mL × 10^3
- Protozoal Count ([5]; 2 doses 1 wk apart at 167 mg/kg/dose, week 0, 167 mg/kg): 64,000 number/mL of rumen fluid and 68,500 number/mL of rumen fluid and 94,000 number/mL of rumen fluid
- Protozoal Count ([5]; 2 doses 1 wk apart at 167 mg/kg/dose, week 1): 0 number/mL of rumen fluid
- Protozoal Count ([5]; 2 doses 1 wk apart at 167 mg/kg/dose, week 2): 0 number/mL of rumen fluid
- Protozoal Count ([5]; 2 doses 1 wk apart at 167 mg/kg/dose, week 3): 0 number/mL of rumen fluid
- Protozoal Count ([5]; 2 doses 1 wk apart at 167 mg/kg/dose, week 4): 0 number/mL of rumen fluid
- Protozoal Count ([5]; 3 doses 1 wk apart at 167 mg/kg per dose, week 0, 167 mg/kg): 259,000 number/mL of rumen fluid and 242,500 number/mL of rumen fluid and 122,500 number/mL of rumen fluid
- Protozoal Count ([5]; 3 doses 1 wk apart at 167 mg/kg per dose, week 1): 0 number/mL of rumen fluid
- Protozoal Count ([5]; 3 doses 1 wk apart at 167 mg/kg per dose, week 2): 0 number/mL of rumen fluid
- Protozoal Count ([5]; 3 doses 1 wk apart at 167 mg/kg per dose, week 3): 0 number/mL of rumen fluid
- Protozoal Count ([5]; 3 doses 1 wk apart at 167 mg/kg per dose, week 4): 0 number/mL of rumen fluid
- Protozoal Count ([5]; single dose 167 mg/kg, week 0, 167 mg/kg): 151,500 number/mL of rumen fluid and 300,000 number/mL of rumen fluid and 149,500 number/mL of rumen fluid
- Protozoal Count ([5]; single dose 167 mg/kg, week 1): 0 number/mL of rumen fluid
- Protozoal Count ([5]; single dose 167 mg/kg, week 2, 167 mg/kg): 370,000 number/mL of rumen fluid and 0 number/mL of rumen fluid and 4,500 number/mL of rumen fluid
- Protozoal Count ([5]; single dose 167 mg/kg, week 3): 88,800 number/mL of rumen fluid
- ADG, response to defaun. ([6]; vs control, p < 0.01): 72%
- Carcass dressing out percentage, response to defaun. ([6]; vs control, p < 0.01): 16%
- Loin eye muscle area, response to defaun. ([6]; vs control, p < 0.01): 26%
- ADG (average daily gain) ([6]; defaunation): 165 g/day
- Loin eye muscle area ([6]; defaunation, 16 weeks, between 12th and 13th rib): 12.5 CM^2
- Carcass dressing out percentage ([6]; defaunation, 16 weeks, cold carcass weight as percentage of liveweight): 44.5%
- Protozoal Reduction [4]: 100%
- Protozoal numbers ([7]; week 0, 332 mg/kg): 0 per mL × 10^3
- Protozoal numbers ([7]; week 3, 332 mg/kg): 0 per mL × 10^3
- Protozoal numbers ([7]; week 6, 332 mg/kg): 0 per mL × 10^3
- Protozoal numbers ([7]; week 9, 332 mg/kg): 0 per mL × 10^3
- Protozoal numbers ([7]; week 12, 332 mg/kg): 0 per mL × 10^3
- Residual protozoal population (in words) [8]: one sheep had a residual protozoal population
- LD50 [9]: > 4000 mg/kg
- Rate of liveweight gain (in words) ([10]; over controls, P<0.01): highly significant improvement in the rate of liveweight gain
- ADG Increase ([10]; relative to control): 65%
- ADG ([10]; weeks 0-12): 165 g/day
